Drawing on US20120121692A1, “COMPOUNDS AND COMPOSITIONS COMPRISING CDK INHIBITORS AND METHODS FOR TREATING CANCER” (SHANDONG UNIVERSITY, priority 2009, published 2012), this text covers IC50 and melting point for 21 compounds.

Molecules are shown by their SMILES. Read-outs that look alike come from different tables or passages of the source.

Series [1] has as its system HCT116 cells. Description: MTT cytotoxicity screening, human colon cancer cell line HCT116. Conditions: Homo sapiens. It is filed as cell-based. The text has this:
Human colon cancer cell line HCT116 can be used for the preliminary cytotoxicity screening of the disclosed compounds as disclosed by Mosmann, T., “Rapid colorimetric assay for cellular growth and survival: application to proliferation and cytotoxicity assays.” J. Immunol. Methods, (1983) 65(1-2): p. 55-63 referred to herein further as the “MTT test” which is incorporated herein by reference in its entirety.
The disclosure of Mosmann recites the following. “MTT 93-(4,5-dimethylthirazol-2-yl)-2,5-diphenyl tetrazolium bromide; Sigman catalog no. M2128) was dissolved in PBS at 5 mg/ml and filtered to sterilize and remove a small amount of insoluble residue present in some batches of MTT. At the times indicated below, stock MTT solution (10 ml per 100 ml) was added to all wells of an assay, and plates were incubated at 37° C. for 4 h. Acid-siopropanol (100 ml of 0.04 N HCl in isopropanol) was added to all wells and mixed thoroughly to dissolve the dark blue crystals. After a few minutes at room temperature to ensure that all crystals were dissolved, the plates were read o a Dynatech MR580Microelisa reader, using a test wavelength of 570 nm, a reference wavelength of 630 nm, and a calibration setting of 1.99 (or 1.0 if the samples were strongly colored). Plates were normally read within 1 h of adding the isopropanol.
“Our final procedure was to add 0.01 ml MTT (5 mg/ml in phosphate-buffered saline) to 0.1 ml cells in growth medium. After 4 h at 37° C. for MTT cleavage, the formazan product was solublilized by the addition of 0.1 ml 0.04 N HCl in isopropanol. Optical density was measured on a Dynatech MR 580 plate reader, using a reference wavelength of 630 nm and a test wavelength of 570 nm.” 3-(4,5-Dimethylthiazol-2-yl)-2,5-diphenyltetrazolium bromide, a tetrazole, can pass through cellular membrane to enter into cells. This tetrazole may be reduced to the purple formazan in the mitochondria of living cells, which can diffuse out to form crystals. This crystal can be dissolved in the dimethyl sulfoxide to form a colored solution. The absorbance of this colored solution can be quantified by measuring at certain wavelength (490 nm) using a spectrophotometer. The quantity of the formazan crystal is proportional to the number of living cells.
As used herein, cells were cultured in McCoy's 5A medium supplemented with 10% heat-inactivated Fetal Bovine Serum (FBS) and 5% Penicillin/Streptomycin solution. McCoy's 5A, 1× (Iwakata & Grace modified) medium with L-Glutamine, DPBS, 1× w/o Ca and Mg, Penicillin/Streptomycin solution, Trypsin EDTA, 1× and PBS, 1× w/o Ca and Mg were purchased from Mediatech, Inc. (USA). FBS was purchased from Hyclone (USA).
The cytotoxicity of the compounds was estimated using the MTT assay. A 96-well plate was seeded with 100 μl medium containing HCT116 cells in suspension at a density of 2.5×10^4 cells/ml. After 24 hours of incubation, the cells were treated with the compounds, which were dissolved in DMSO (dimethyl sulfoxide) as stock solutions and diluted to final concentrations of 100 μM, 50 μM, 25 μM, 12.5 μM, 6.25 μM & 1 μM (for compounds tested in the micromolar concentrations) and 10 μM, 1 μM, 500 nM, 250 nM, 125 nM & 62.5 nM (for compounds tested in the nanomolar concentration range) using medium containing 0.1% DMSO. The final concentration of DMSO in the culture medium was maintained at 0.1%-0.001% (v/v). After 48 hrs incubation in the presence of test compounds, the spent medium was removed and the wells were washed twice with 100 μL of PBS solution. 100 μL of fresh medium and 10 μL of MTT (5 mg/ml in PBS) was added to the wells and incubated at 37° C. in dark for 4 hrs. The formazan product was dissolved by adding 100 μL of 100% DMSO after removing the medium from each well and was stabilized by adding 12.5 μL of Sorensen's glycine buffer to each well. […]

Setting [2] is: HCT-116, 48 hrs incubation, absorbance 490 nm, primary screening, read-out: IC50.

For the compound `COc1cccc(/C=C/C(=O)c2c(OC)cc(OC)c(C3=CCNCC3)c2O)c1` [Compound B6, (E)-1-(2-hydroxy-4,6-dimethoxy-3-(1,2,3,6-tetrahydropyridine-4-yl)phenyl)-3-(3-methoxyphenyl)-2-propylene-1-one], the melting point is 99 to 100 °C. In addition, in series [1] (setting [2]), the IC50 is 3.08 µM.

For `COc1cc(OC)c(C2=CCNCC2)c(O)c1C(=O)/C=C/c1cccc([N+](=O)[O-])c1` [Compound B8, (E)-1-(2-hydroxy-4,6-dimethoxy-3-(1,2,3,6-tetrahydropyridine-4-yl)phenyl)-3-(3-nitrophenyl)-2-propylene-1-one], the melting point is 199 to 200 °C. Further, the 50% inhibitory concentration (IC50) in series [1] (setting [2]) was 4.1 µM.

Compound `COc1cc(OC)c(C2=CCNCC2)c(O)c1C(=O)/C=C/c1ccc(Br)cc1` [Compound B13, (E)-3-(4-bromophenyl)-1-(2-hydroxy-4,6-dimethoxy-3-(1,2,3,6-tetrahydropyridine-4-yl)phenyl)-2-propylene-1-one] registered a melting point of 120 to 121 °C. In series [1] (setting [2]), the IC50 was found to be 18.2 µM.

Compound `COc1ccc(/C=C/C(=O)c2c(OC)cc(OC)c(CN3CCOCC3)c2O)cc1` [Compound D2, (E)-1-(2-hydroxy-4,6-dimethoxy-3-(morpholin-4-ylmethyl)phenyl)-3-(4-methoxyphenyl)-2-propylene-1-one] gave a melting point of 159 to 160 °C. Besides, the IC50 in series [1] (setting [2]) came to 21.4 µM.

`COc1cc(OC)c(C2=CCNCC2)c(O)c1C(=O)/C=C/c1ccc(C#N)cc1` [Compound B15, (E)-3-(4-cyanophenyl)-1-(2-hydroxy-4,6-dimethoxy-3-(1,2,3,6-tetrahydropyridine-4-yl)phenyl)-2-propylene-1-one] gave a melting point of 135 to 136 °C. The IC50 in series [1] (setting [2]) turned out to be 7.3 µM.

`COc1cccc(-c2cc(=O)c3c(OC)cc(OC)c(C4=CCN(C)CC4)c3o2)c1OC` [Compound F6, 5,7-dimethoxy-8-(1-methyl-1,2,3,6-tetrahydropyridin-4-yl)-2-(2,3-dimethoxy-phenyl)-4H-chromen-4-one]: the melting point was in the range of 195 to 196 °C. The half-maximal inhibitory concentration (IC50) in series [1] (setting [2]) came to 61.3 µM.

`COc1cc(OC)c(C(=O)/C=C/c2cccc(Cl)c2)c(O)c1CN1CCCCC1` [Compound C4] showed a melting point of 134 to 135 °C. Also, the IC50 in series [1] (setting [2]) stood at 3.87 µM.

Turning to `COc1cccc(/C=C/C(=O)c2c(OC)cc(OC)c(CN3CCOCC3)c2O)c1` [Compound D6, (E)-3-(3-methoxyphenyl)-1-(2-hydroxy-4,6-dimethoxy-3-(morpholinemethyl)-phenyl)-2-propylene-1-one], the melting point was in the range of 169 to 170 °C. In series [1] (setting [2]), the IC50 came out at 2.17 µM.

`COc1cc(OC)c(C(=O)/C=C/c2ccc(Cl)cc2)c(O)c1CN1CCOCC1` [Compound D3, (E)-3-(4-chlorophenyl)-1-(2-hydroxy-4,6-dimethoxy-3-(morpholin-4-ylmethyl)phenyl)-2-propylene-1-one] showed a melting point of 140 to 141 °C. Moreover, the IC50 in series [1] (setting [2]) was found to be 6.97 µM.

In turn, `COc1cccc(/C=C/C(=O)c2c(OC)cc(OC)c(C3=CCN(C)CC3)c2O)c1OC` [Compound A4, (E)-3-(2,3-dimethoxyphenyl)-1-(2-hydroxy-4,6-dimethoxy-3-(1-methyl-1,2,3,6-tetrahydropyridine-4-yl)phenyl)-2-propylene-1-one] yielded a melting point of 171 to 172 °C. For the same compound, the IC50 in series [1] (setting [2]) is 5.22 µM. For the same compound, in series [1] (HCT-116, further evaluated after secondary screening (Table VIII), read-out: IC50 value), the IC50 is greater than 1 µM.

In turn, `COc1cc(OC)c(C2=CCN(C)CC2)c(O)c1C(=O)/C=C/c1ccco1` [Compound E1, (E)-3-(furan-2-yl)-1-(2-hydroxy-4,6-dimethoxy-3-(1-methyl-1,2,3,6-tetrahydro-pyridine-4-yl)phenyl)-2-propylene-1-one] had a melting point of 145 to 146 °C. In addition, in series [1] (setting [2]), the IC50 is 10.2 µM.

As to `COc1cc(OC)c(C2=CCN(C)CC2)c(O)c1C(=O)/C=C/c1ccc(O)cc1` [Compound A11, (E)-1-(2-hydroxy-4,6-dimethoxy-3-(1-methyl-1,2,3,6-tetrahydropyridine-4-yl)phenyl)-3-(4-hydroxyphenyl)-2-propylene-1-one], the melting point lay in the range of 98 to 100 °C. The IC50 in series [1] (setting [2]) came to 88.2 µM.

With `COc1cc(OC)c(C2=CCNCC2)c(O)c1C(=O)/C=C/c1ccc(O)cc1` [Compound B11, (E)-1-(2-hydroxy-4,6-dimethoxy-3-(1,2,3,6-tetrahydropyridine-4-yl)phenyl)-3-(4-hydroxyphenyl)-2-propylene-1-one], the melting point was in the range of 109 to 110 °C. Besides, the IC50 in series [1] (setting [2]) came out at 4.03 µM.

In the case of `COc1cc(OC)c(C2=CCN(C)CC2)c(O)c1C(=O)/C=C/c1ccc(Br)cc1` [Compound A13, (E)-3-(4-bromophenyl)-1-(2-hydroxy-4,6-dimethoxy-3-(1-methyl-1,2,3,6-tetrahydropyridine-4-yl)phenyl)-2-propylene-1-one], the melting point lay in the range of 164 to 165 °C. In addition, the IC50 in series [1] (setting [2]) is 8.76 µM.

`COc1cc(OC)c(C(=O)/C=C/c2cccc(Cl)c2)c(O)c1CN1CCOCC1` [Compound D5, (E)-3-(3-chlorophenyl)-1-(2-hydroxy-4,6-dimethoxy-3-(morpholinemethyl)phenyl)-2-propylene-1-one] yielded a melting point of 135 to 136 °C. Further, the half-inhibitory concentration (IC50) in series [1] (setting [2]) came to 2.8 µM.

With `COc1ccc(/C=C/C(=O)c2c(OC)cc(OC)c(C3=CCNCC3)c2O)c(OC)c1OC` [Compound B16, (E)-1-(2-hydroxy-4,6-dimethoxy-3-(1,2,3,6-tetrahydropyridine-4-yl)phenyl)-3-(2,3,4-trimethoxyphenyl)-2-propylene-1-one], the melting point was in the range of 98 to 100 °C. Moreover, the half-maximal inhibitory concentration (IC50) in series [1] (setting [2]) turned out to be 5.54 µM.

As to `COc1cc(OC)c(C(=O)/C=C/c2ccc(C)cc2)c(O)c1CN1CCOCC1` [Compound D1, (E)-1-(2-hydroxy-4,6-dimethoxy-3-(morpholin-4-ylmethyl)phenyl)-3-(4-methylphenyl)-2-propylene-1-one], the melting point lay within 126 to 127 °C. For the same compound, the IC50 in series [1] (setting [2]) was determined as 14.8 µM.

Turning to `COc1ccc(/C=C/C(=O)c2c(OC)cc(OC)c(CN3CCCCC3)c2O)cc1` [Compound C2, (E)-1-(2-hydroxy-4,6-dimethoxy-3-(piperidin-1-ylmethyl)phenyl)-3-(4-methoxyphenyl)-2-propylene-1-one], the melting point lay in the range of 129 to 130 °C. Besides, the IC50 in series [1] (setting [2]) was 5.46 µM.

`COc1cc(OC)c(C2=CCNCC2)c(O)c1C(=O)/C=C/c1ccc(C)cc1` [Compound B9, (E)-1-(2-hydroxy-4,6-dimethoxy-3-(1,2,3,6-tetrahydropyridine-4-yl)phenyl)-3-(4-methylphenyl)-2-propylene-1-one] had a melting point of 98 to 100 °C. Moreover, in series [1] (setting [2]), the IC50 was 4.02 µM.

Turning to `COc1cccc(/C=C/C(=O)c2c(OC)cc(OC)c(C3=CCNCC3)c2O)c1OC` [Compound B4, (E)-3-(2,3-dimethoxyphenyl)-1-(2-hydroxy-4,6-dimethoxy-3-(1,2,3,6-tetrahydropyridine-4-yl)phenyl)-2-propylene-1-one], the melting point fell in the range of 109 to 110 °C. Moreover, the IC50 in series [1] (setting [2]) turned out to be 4.47 µM.

In turn, `COc1cc(-c2cc(=O)c3c(OC)cc(OC)c(C4=CCN(C)CC4)c3o2)cc(OC)c1OC` [Compound F8, 5,7-dimethoxy-8-(1-methyl-1,2,3,6-tetrahydropyridin-4-yl)-2-(3,4,5-trimethoxy-phenyl)-4H-chromen-4-one] had a melting point of 211 to 212 °C. Also, in series [1] (setting [2]), the IC50 amounted to 25.9 µM.

The IC50 is the point on the concentration scale where inhibition reaches its midpoint. By melting point is commonly meant the temperature of the solid-liquid transition.
